Laboratory results: PMC4754968 (Clinical genitourinary cancer, 2014)

Experiments:
[1] = Everolimus single-dose pharmacokinetics; assay type: in vivo, patients; settings: for AUCinf % extrapolated: single dose everolimus 30 mg
[2] = cited from earlier work
metastatic RCC [3] = settings: metastatic RCC previously treated with VEGFR tyrosine kinase inhibitor; ref [6]; cited from earlier work
[4] = human, in vivo, 30 mg
[5] = cited from earlier work; remark: listed apart in the source
[6] = Sunitinib multiple-dose pharmacokinetics; assay type: in vivo, patients; settings: for AUC / CL/F / Cmax / half-life: human, oral; for AUC / CL/F / Cmax / half-life / Cmin / Tmin: plasma, multiple dose (dose 14), sunitinib 50 mg daily with everolimus 30 mg weekly; for AUC: AUCtau, dosing interval 24 hours; for CL/F: dose/AUCtau
metastatic RCC [7] = settings: front line metastatic RCC setting; ref [1],[2]; cited from earlier work

What does the source list for `CO[C@H]1C[C@@H]2CC[C@@H](C)[C@@](O)(O2)C(=O)C(=O)N2CCCC[C@H]2C(=O)O[C@H]([C@H](C)C[C@@H]2CC[C@@H](OCCO)[C@H](OC)C2)CC(=O)[C@H](C)/C=C(\C)[C@@H](O)[C@@H](OC)C(=O)[C@H](C)C[C@H](C)/C=C/C=C/C=C/1C` [Everolimus]?
Tmax ([1]; human, plasma, po): 2 h; AUC(0-inf) ([1]; human, plasma, po, AUCinf, subject 1002, after first oral dose of everolimus 30 mg, with sunitinib 50 mg daily, plasma): 1560 ng·h/mL; CL/F ([1]; human, plasma, po, CL/F, subject 1002, after first oral dose of everolimus 30 mg, with sunitinib 50 mg daily, plasma): 3.34 mL/min/kg; Cmax ([1]; human, plasma, po, Cmax, subject 1002, after first oral dose of everolimus 30 mg, with sunitinib 50 mg daily, plasma): 82.3 ng/mL; half-life ([1]; human, plasma, po, t1/2, subject 1002, after first oral dose of everolimus 30 mg, with sunitinib 50 mg daily, plasma): 25.7 h; AUCinf % extrapolated ([1]; subject 1002): 48.7%; AUCinf % extrapolated ([1]; subject 1003): 35.2%; bioavailability [2]: 16%; progression-free survival (PFS) over placebo (metastatic RCC [3]): significant improvement; AUCtau relative to AUCinf after the first dose [4]: almost double; eliminated in bile [5]: 98%

Which AUC ([6]; subject 1001) does the source give for `CCN(CC)CCNC(=O)c1c(C)[nH]c(/C=C2\C(=O)Nc3ccc(F)cc32)c1C` [Sunitinib, Sunitinib malate] here?
The AUC was 1860 ng·h/mL.

What about the AUC ([6]; subject 1002) of the same molecule?
Its AUC is 2770 ng·h/mL.

What about the AUC ([6]; subject 1003) of the same molecule?
Its AUC is 2300 ng·h/mL.

And the CL/F ([6]; subject 1001)?
Its CL/F is 7.13 mL/min/kg.

And the CL/F ([6]; subject 1002)?
The CL/F was 3.12 mL/min/kg.

And the CL/F ([6]; subject 1003)?
The CL/F was 5.34 mL/min/kg.

And the Cmax ([6]; subject 1001)?
The Cmax was 83.1 ng/mL.

What about the Cmax ([6]; subject 1002) of the same molecule?
Its Cmax is 142 ng/mL.

What about the Cmax ([6]; subject 1003) of the same molecule?
The Cmax was 106 ng/mL.

What about the half-life ([6]; t1/2, subject 1002) of the same molecule?
Its half-life is 33 h.

What about the half-life ([6]; t1/2, subject 1003) of the same molecule?
Its half-life is 85.5 h.

And the “AUCtau compared with sunitinib monotherapy” value ([6]; same dose of sunitinib (50 mg/d), compared with Faivre, et al)?
Its value is “substantially higher”.

What about the Cmin ([6]; subject 1001) of the same molecule?
Its Cmin is 59.4 ng/mL.

What about the Tmin ([6]; subject 1001) of the same molecule?
Its Tmin is 2 h.

And the Cmin ([6]; subject 1002)?
Its Cmin is 80.3 ng/mL.

And the Tmin ([6]; subject 1002)?
The Tmin was 0 h.

And the “progression free survival (PFS)” value (metastatic RCC [7])?
The value was “less than a year”.

For `Cc1ccc(Nc2nccc(N(C)c3ccc4c(C)n(C)nc4c3)n2)cc1S(N)(=O)=O` [pazopanib], which “progression free survival (PFS)” value (metastatic RCC [7]) is on record?
The value was “less than a year”.
